Columns and labels:
CYP1A1 gene expression [1] = test: CYP1A1 gene expression after induction with outdoor particles, qRT-PCR in keratinocytes; conditions: for CYP1A1 Induction mean ± SE: NHEK adult, 10 μM, untreated = 1
Method: Adult human epidermal keratinocytes were cultured in keratinocyte medium without BPE and without EGF for 24 h prior to addition of model particles (see table 1.1). The model particles were suspended in phosphate buffered saline and were sonicated for 1 min and then directly added to the keratinocytes at 1.5 μg/cm^2. E/Z-2-benzylindene-5,6-dimethoxy-3,3-dimethylindan-1-one (BDDI) has been dissolved in DMSO and diluted in medium. Solutions containing the compound with maximal 0.1% DMSO were applied 2 h prior to treatment with the model particles. Gene expression was analyzed via qRT-PCR. For each gene, a specific PCR primer pair was designed as compiled in Table 2:
Adult human epidermal keratinocytes were cultured in keratinocyte medium without BPE and without EGF for 24 h prior to addition of model particles (see table 1.1). The model particles were suspended in phosphate buffered saline and were sonicated for 1 min and then directly added to the keratinocytes at 1.5 μg/cm^2. Sclareolide has been dissolved in DMSO and diluted in medium. Solutions containing the compound with maximal 0.1% DMSO were applied 2 h prior to treatment with the model particles. Gene expression was analyzed via qRT-PCR. For each gene, a specific PCR primer pair was designed (see Table 2).

POMC gene expression = test: Particle induced POMC gene expression, qRT-PCR in keratinocytes; format: cell-based, human; conditions: SRM1650b, control = 1
Method: (§1) Gene expression was analyzed via qRT-PCR.
(§2) Ginger root CO2 extract has been dissolved in DMSO and diluted in medium. […] Gene expression was analyzed via qRT-PCR. […] Table 7 compiles the results for ginger root CO2 extract altered POMC and IL-6 gene expression
(§3) Purple coneflower pressed juice has been dissolved directly in medium. […] Gene expression was analyzed via qRT-PCR. […] Table 8 compiles the results for purple coneflower pressed juice altered POMC and IL-6 gene expression
(§4) A mixture of purple coneflower pressed juice and ginger root CO2 extract has been pre-dissolved in DMSO and diluted in medium. […] Gene expression was analyzed via qRT-PCR. […] Table 9 compiles the results for purple coneflower pressed juice altered POMC and IL-6 gene expression

CYP1A1 gene expression [2] = test: CYP1A1 gene expression after induction with indoor particles, qRT-PCR in keratinocytes; format: cell-based, human; conditions: for Induction mean ± SE (CYP1A1): 10 μM, Huber990 1.5 μg/cm2, untreated = 1
Method: as §1

MMP1 gene expression = test: Particle induced MMP1 gene expression, qRT-PCR in keratinocytes; format: cell-based, human; conditions: SRM1650b, control = 1
Method: as §1

IL-6 gene expression = test: Particle induced IL-6 gene expression, qRT-PCR in keratinocytes; format: cell-based, human; conditions: SRM1650b, control = 1
Method: as §1, §2, §3, §4

E/Z-2-benzylindene-5,6-dimethoxy-3,3-dimethylindan-1-one [BDDI]
CYP1A1 Induction mean ± SE (CYP1A1 gene expression [1]; 6 h, SRM1650 1.5 μg/cm2): 0.02 ± 0.00 | CYP1A1 Induction mean ± SE (CYP1A1 gene expression [1]; 6 h, SRM2975 1.5 μg/cm2, particle control 1.03): 0.20 ± 0.00 | CYP1A1 Induction mean ± SE (CYP1A1 gene expression [1]; 24 h, SRM2975 1.5 μg/cm2): 0.01 ± 0.00 | inhibition of particle induced Cyp1A1 gene expression (in words) (CYP1A1 gene expression [1]; outdoor model particles): capable to inhibit | POMC 6 h (POMC gene expression; 1 μM): 0.9 ± 0.018 | POMC 6 h (POMC gene expression; 2.5 μM): 1.1 ± 0.02 | POMC 6 h (POMC gene expression; 10 μM): 0.9 ± 0.001 | Induction mean ± SE (CYP1A1) (CYP1A1 gene expression [2]; 6 h): 0.05 ± 0.00 | Induction mean ± SE (CYP1A1) (CYP1A1 gene expression [2]; 24 h): 0.20 ± 0.00 | inhibition of particle induced Cyp1A1 gene expression (in words) (CYP1A1 gene expression [2]; indoor model particles): capable to inhibit | MMP1 24 h (MMP1 gene expression; 1 μM): 0.7 ± 0.014 | MMP1 24 h (MMP1 gene expression; 2.5 μM): 0.8 ± 0.016 | MMP1 24 h (MMP1 gene expression; 10 μM): 0.5 ± 0.022 | IL-6 6 h (IL-6 gene expression; 1 μM): 0.9 ± 0.067 | IL-6 6 h (IL-6 gene expression; 2.5 μM): 0.6 ± 0.006 | IL-6 6 h (IL-6 gene expression; 10 μM): 0.5 ± 0.01

Source: patent US10857089B2, “Cosmetic compositions comprising purple coneflower pressed juice” (Symrise AG, priority 2015, dated 2020)
